Here are results for 8 compounds from ChEMBL document CHEMBL1629535, “Novel small molecule inhibitors of MDR Mycobacterium tuberculosis by NMR fragment screening of antigen 85C” (2010).

Each structure is given as a SMILES string. Values after ≈ are worked out from the molar mass of the structure shown.

Holding throughout (format): functional
The subject of experiment [1] is Mycolicibacterium smegmatis. Kind of experiment: Growth inhibition of Mycobacterium smegmatis.
Experiment [2] relates to Mycobacterium tuberculosis. As to the kind of experiment: Growth inhibition of Mycobacterium tuberculosis H37 by radiometric BACTEC 460 assay.
Experiment [3] relates to Mycolicibacterium aurum. Kind of experiment: Growth inhibition of multidrug resistance Mycobacterium aurum.

Consider `N#Cc1c(N)sc2c1CCCCC2`, for which the MIC in experiment [1] was 64 µg/mL (≈ 333 µM); in experiment [2], more than 500 µg/mL.

On to `CCCC1CCc2c(sc(N)c2C(N)=O)C1` (configuration not stated), for which the lowest concentration to inhibit growth in experiment [1] (MIC) was 64 µg/mL (≈ 269 µM).

Take `CCCC1CCc2c(sc(N)c2C#N)C1` (configuration not stated): the MIC in experiment [1] was determined as 16 µg/mL (≈ 72.6 µM); in experiment [2], 50 µg/mL (≈ 227 µM).

In experiment [1], `CCC1CCc2c(sc(N)c2C(N)=O)C1` (configuration not stated) returned an MIC of 64 µg/mL (≈ 285 µM).

On to `[N-]=[N+]=NC[C@H]1O[C@H](O[C@H]2O[C@H](CO)[C@@H](O)[C@H](O)[C@H]2O)[C@H](O)[C@@H](O)[C@@H]1O`, for which, in experiment [3], 200 µg/mL (≈ 544 µM) was the least that counted as inhibitory (MIC).

As for `CCCOc1ccc2nc(N)sc2c1`, the MIC in experiment [1] came out at 32 µg/mL (≈ 154 µM); in experiment [2], 20 µg/mL (≈ 96 µM).

On to `CC1CCc2c(sc(N)c2C(N)=O)C1` (configuration not stated), for which, in experiment [1], the MIC was more than 32 µg/mL.

For the compound `CCC1CCc2c(sc(N)c2C#N)C1` (configuration not stated), the MIC in experiment [1] is 32 µg/mL (≈ 155 µM); in experiment [2] it was 50 µg/mL (≈ 242 µM).

Broadly, the MIC is the lowest concentration found to suppress growth. Read a high MIC as a less susceptible organism.
